Results as given in paper PMC6616128, “Liquiritin, as a Natural Inhibitor of AKR1C1, Could Interfere With the Progesterone Metabolism” (Frontiers in Physiology, 2019).
Residue numbers refer to the chain shown, from its start. Read-outs that look alike come from different tables or passages of the source.

Columns and labels:
recombinant AKR1C2 = molecular target: T1, recombinant AKR1C2 (Homo sapiens, UniProt P52895); experiment: Enzyme activity (NADPH) assay with s-tetralol, recombinant GST-AKR1C2; type: biochemical
T1 construct: made in house; host or cells: Escherichia coli JM109
T1 sequence (P52895 1-323): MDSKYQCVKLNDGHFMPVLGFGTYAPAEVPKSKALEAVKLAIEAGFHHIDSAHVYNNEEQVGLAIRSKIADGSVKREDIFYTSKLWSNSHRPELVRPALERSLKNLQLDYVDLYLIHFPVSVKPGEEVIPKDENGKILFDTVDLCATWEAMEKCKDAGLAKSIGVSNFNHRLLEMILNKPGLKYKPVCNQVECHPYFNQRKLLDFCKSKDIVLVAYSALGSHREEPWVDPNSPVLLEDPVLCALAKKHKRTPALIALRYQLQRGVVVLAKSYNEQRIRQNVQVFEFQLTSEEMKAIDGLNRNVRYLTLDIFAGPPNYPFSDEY
Method: (§1) Protein concentrations were determined using the Bradford protein assay kit.
(§2) To screen for the indicated inhibitor, the assay mixture was added with additional DMSO or 2 μM compounds. […] The inhibition patterns were determined by fitting initial velocity and inhibitor concentration into inhibition models using Graphpad Prism 6.0. All inhibition data were obtained from single experiments, with samples conducted in duplicate.
(§3) Each experiment was repeated three times and the differences among means were significant determined by Student t-text (^∗p < 0.05; ^∗∗p < 0.01; ^∗∗∗p < 0.001).

AKR1C1 [1] = molecular target: T2, AKR1C1 (Homo sapiens, UniProt Q04828); experiment: Enzyme activity (NADPH) assay with s-tetralol, recombinant GST-AKR1C1; type: biochemical; design: made in house; host or cells: Escherichia coli JM109;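 also: GST-fused AKR1C1 expressed in E. coli and purified by glutathione affinity, control wells received DMSO instead of compound, duplicate samples from a single experiment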
T2 sequence (Q04828 1-323): T1 sequence (P52895 1-323) with V38T, H47R, V54L, S87C, M151V, H170R, L172Q
Method: GST-tagged recombinant AKR1C isoforms expressed JM109 was grown in Luria-Bertani broth (100 μg⋅ml-1 ampicillin, pH = 7.0) at 37°C with orbital shaking at 220 rpm. When cells achieved an OD600 nm between 0.4 and 0.6, 0.3 mM final concentration of isopropyl β-D-1-thiogalactopyranoside (IPTG) was added to the cultures and incubated for an additional 12 h at 25°C. Cells were harvested by centrifugation at 8000 g for 10 min, and the cell pellets were stored at -80°C for storage. The pellets were resuspended in 1 × PBS, pH = 7.4 and lysed by ultrasonication at ice-cold temperature using an UH-03 union instrument. The purification of glutathione-S-transferase (GST)-fusion AKR1C1, AKR1C2, and AKR1C3 were then carried out using ÄKTA systems from GE Healthcare as described in Handbook. The recombinant proteins were eluted in 50 mM Tris–HCl (pH = 8.0) with 20 mM reduced glutathione, fresh preparedly. Protein concentrations were determined using the Bradford protein assay kit. All proteins were aliquoted and stored at -80°C containing 20% glycerol.
as §2
Firstly, we overexpressed recombinant human AKR1C in E. coli in the form of a GST-fusion protein, and then purified it by affinity chromatography on glutathione-Sepharose.
To screen for the inhibitors of AKR1C1, we developed a readily accessible indirect NADPH generating-based assay that can be used for high-throughput inhibitors screening. […] Wells were included containing enzyme and no inhibitor or 2 μM inhibitor.

AKR1C1 [2] = molecular target: T2, AKR1C1; experiment: Progesterone metabolism in HEC-1-B cells transfected with AKR1C1 plasmid; type: cell-based; design: expressed in transfected cells; host or cells: HEC-1-B cells; settings: 50 μM compound, 5 μM progesterone, 6 h
Method: HEC-1-B cell line was purchased from the Cell Bank of the Chinese Academy of Sciences (Shanghai, China). HEC-1-B cell was cultured in DMEM (Gibco, Grand Island, New York, United States) supplemented with 10% fetal bovine serum at 37°C in a 5% CO2 incubator. In all experiments, the cells were used at passages 4 to 10. The cells were transfected with AKR1C1 plasmid using jet PRIME reagent (Polyplus) according to manufacturer’s instructions. […] The culture media were collected immediately and 6 h later. […] A LC-20A High Performance liquid chromatography (Shimadzu, Japan) with UV detector was used for analyzing progesterone cultured from the cells. […] The mobile phase used was a mixture of mobile phase A and mobile phase B in an isocratic program as 3:7 running on an Agilent HC C18 column (150 mm × 4.6 mm, 5 μm particle size) at a constant temperature of 35°C. The flow rate was 1.0 mL/min and the detection wavelength was 245 nm. The whole analytical period was 10 min for each sample. The standard (progesterone) was dissolved in methanol. […]
Therefore, we choose to transfect cells with AKR1C1 gene for cellular study. […] Each experiment was repeated three times and the differences among means were significant determined by Student t-text (^∗p < 0.05; ^∗∗p < 0.01; ^∗∗∗p < 0.001).

recombinant AKR1C3 [3] = molecular target: T3, recombinant AKR1C3 (Homo sapiens, UniProt P42330); experiment: biochemical
T3 sequence (P42330 1-323): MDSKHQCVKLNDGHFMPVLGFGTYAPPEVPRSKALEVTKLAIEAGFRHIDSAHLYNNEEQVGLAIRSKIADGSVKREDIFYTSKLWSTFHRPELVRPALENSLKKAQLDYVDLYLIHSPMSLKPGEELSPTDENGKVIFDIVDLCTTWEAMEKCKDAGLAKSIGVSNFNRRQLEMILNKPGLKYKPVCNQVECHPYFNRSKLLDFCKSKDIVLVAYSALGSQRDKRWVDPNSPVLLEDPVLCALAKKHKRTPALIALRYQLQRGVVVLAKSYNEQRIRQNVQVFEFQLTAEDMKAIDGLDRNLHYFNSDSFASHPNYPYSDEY
Method: as §1, §2, §3

recombinant AKR1C3 [4] = molecular target: T3, recombinant AKR1C3; settings: GST-AKR1C3; S-tetralol/NADP+
Method: as §1, §2, §3

Structure (SMILES): O=C1C[C@@H](c2ccc(O[C@@H]3O[C@H](CO)[C@@H](O)[C@H](O)[C@H]3O)cc2)Oc2cc(O)ccc21 [Liquiritin]
- IC50 (recombinant AKR1C2; s-tetralol 103.30 μM as substrate): 610 ± 50 nM
- remaining activity at 2 µM (AKR1C1 [1]; 2 μM compound, Figure 1A, read-out: % Enzyme Activity): 31%
- slope (AKR1C1 [1]; 2 μM compound, Supplementary Table 1, CON 0.0122): 0.003777
- enzyme activity (AKR1C1 [1]; 2 μM compound, Supplementary Table 1, CON 192.295568): 59.5351 nmol/min/mg
- remaining activity at 2 µM (AKR1C1 [1]; 2 μM compound, Supplementary Table 1, CON = 1, read-out: ratio (activity relative to CON)): 31%
- inhibition at 2 µM (AKR1C1 [1]; 2 μM compound, Supplementary Table 1, read-out: % inhibition): 69%
- inhibition at 2 µM (AKR1C1 [1]; 2 μM compound, text on Figure 1A, read-out: inhibitory effect over AKR1C1 enzyme activity (% inhibition)): 34%
- inhibition pattern (AKR1C1 [1]; s-tetralol concentration variation): competitive inhibitor
- IC50 ratio 1C1/1C2 (AKR1C1 [1]; selectivity AKR1C1 vs AKR1C2): 1.03
- IC50 ratio 1C1/1C3 (AKR1C1 [1]; selectivity AKR1C1 vs AKR1C3): 0.17
- inhibition at 50 µM (AKR1C1 [2]): 85%
- IC50 (recombinant AKR1C3 [3]): 3720 ± 90 nM

Structure (SMILES): O[C@H]1CCCc2ccccc21 [S-tetralol, S-(+)-1,2,3,4-tetrahydro-1-naphthol]
- Kcat (recombinant AKR1C2; GST-AKR1C2, S-tetralol/NADP+): 0.0962 s⁻¹
- Km (recombinant AKR1C2; GST-AKR1C2, S-tetralol/NADP+): 103 µM
- Vmax (recombinant AKR1C2; GST-AKR1C2, S-tetralol/NADP+): 94.58 nmol/min/mg
- Kcat (AKR1C1 [1]; GST-AKR1C1, S-tetralol/NADP+): 0.2065 s⁻¹
- Km (AKR1C1 [1]; GST-AKR1C1, S-tetralol/NADP+): 23.5 µM
- Vmax (AKR1C1 [1]; GST-AKR1C1, S-tetralol/NADP+): 203.10 nmol/min/mg
- catalytic efficiency (AKR1C1 [1]; recombinant AKR1C1): 0.53 min^-1/μM^-1
- Kcat (recombinant AKR1C3 [4]): 0.553 s⁻¹
- Km (recombinant AKR1C3 [4]): 851 µM
- Vmax (recombinant AKR1C3 [4]): 543.90 nmol/min/mg
